From patent publication US20080070952A1, “Inhibition or Treatment of Dyskinesia” (PROXIMAGEN LTD.,, priority 2005, published 2008)

tested on: L-DOPA primed MPTP treated animals (common marmosets); assay: L-DOPA induced motor activity, motor disability and dyskinesia (chorea, dystonia) in L-DOPA primed MPTP treated marmosets; format: in vivo, Callithrix Jacchus; conditions: same protocol as Examples 1-8; NOS inhibitors s.c., Vinyl L-NIO 6 mg/kg, 7-NI 20 mg/kg, L-NIO dose not given
Protocol: In the following procedure, all NOS inhibitors (nNOSi) were administered subcutaneously. All other drugs with the exception of 7-nitroindazole were dissolved in deionised water or for oral administration dissolved in deionised water containing 10% sucrose and were administered orally. 7-nitroindazole was dissolved in a 30:70 v/v in water and DMSO. In experiments using ropinirole, animals were pre-treated with a single oral dose of domperidone (5 mg·kg^−1) as an anti-emetic, 30 min before. Carbidopa and domperidone were given as suspension in deionised water and 10% sucrose.
Adult common marmosets of either sex (Callithrix Jacchus; n=6), weighing between 310 to 380 g were used in this study. Marmosets were housed either in pairs or individually at a temperature of 25±1_ C with 50% relative humidity on a 12-hour light-dark cycle. Animals were fed once daily on a diet of fresh fruit, nuts, Mazuri food pellets, and a supplement of vitamin D3 and had free access to water. On experimental days, the animals were fed following completion of behavioural testing.
Marmosets were treated with 1-methyl-4-phenyl-1,2,3,6-tetrahydropyridine hydrochloride (2.0 mg·kg^−1 subcutaneously; MPTP-HCl; Research Biochemicals International; dissolved in 0.9% sterile saline) daily for 5 consecutive days. This treatment regimen induces a persistent and stable syndrome of akinesia, bradykinesia, rigidity, postural abnormality, incoordination and postural tremor (Jenner and Marsden, 1986; Pearce et al., 1995). Animals were hand fed on a cocktail of Mazuri marmoset jelly, dried milk and pureed bananas until body weight had returned towards pre-treatment levels.
Eight weeks following MPTP-treatment, all animals (n=6) were treated for 30 to 40 days with 12.5 mg·kg^−1 L-DOPA methyl ester (Sigma) plus 12.5 mg·kg^−1 carbidopa (Merck Sharp & Dohme) by oral gavage on a daily basis. Carbidopa was administered 30 to 45 min prior to L-DOPA treatment (Pearce et al., 1995). When animals became dyskinetic, daily dosing with a combination of L-DOPA/carbidopa was changed to a once a week treatment. At this point and on, once a week L-DOPA/carbidopa treatment produced similar level of dyskinesia to that produced at the end of the daily priming period. […]
Motor Activity: Motor activity was measured in test cages equipped with an array of 8 infra red photo sensors (perspex fronted aluminium cages, 50×60×70 cm), The number of beam interruptions due to movement was counted and summed in bins of 10 minute interval using an analogue to digital converter attached to an Intel-based PC. Motor activity was measured over a period of 6 hours and expressed both as time course measuring the number of beam interruption occurring in 10 min time segments, or as the total number of beam interruptions over the test period. […]

Row | SMILES | L-Dopa induced dyskinesia
1 | O=[N+]([O-])c1cccc2cn[nH]c12 [7-NI, 7-nitroindazole] | reduced
2 | N=C(N)SCCN [S-(2-aminoethyl)-ITU, S-(2-aminoethyl)-isothiourea] | did not reduce
3 | C=CCC(=N)NCCC[C@H](N)C(=O)O [Vinyl L-NIO, L-N5-(1-imino-3-butenyl)-ornithine] | reduced
4 | N=C(N)SCCc1cccc(CCSC(=N)N)c1 [1,3 PB-ITU, S,S′-1,3-Phenylene-bis(1,2-ethanediyl)-bis-isothiourea] | did not reduce
